{
  "source": "paper PMC3082566",
  "about": "“PTB Domain-Directed Substrate Targeting in a Tyrosine Kinase from the Unicellular Choanoflagellate Monosiga brevicollis” (PLoS ONE, 2011)",
  "key": {"[1]": {"system": "HMTK1", "experiment": "Phosphorylation of peptide substrates by purified HMTK1 (phosphocellulose paper assay)", "assay_type": "biochemical, Monosiga brevicollis", "details": "6 minutes at 30°C; for HMTK1 activity toward peptide (comparison of c-Src and Monosiga-derived peptides): 750 µM peptide, 400 nM HMTK1, pH 7.4, phosphocellulose paper assay, Fig. 2A", "experimental": "(§1) HMTK1 was expressed in Spodoptera frugiperda (Sf9) insect cells using the Bac-to-Bac system (Invitrogen). Sf9 cells (800 ml) were infected with HMTK1 baculovirus and harvested after three days. Cells were lysed in a French pressure cell, and His-tagged HMTK1 was purified using nickel-nitrilotriacetic acid resin (Qiagen), as described previously. Peak fractions were pooled and concentrated in an Amicon Ultrafiltration device (molecular weight cutoff: 30,000 daltons). The purified protein was stored in 40% glycerol at −20°C. The isolated PTB domain of HMTK1 was produced as a fusion with glutathione S-transferase (GST). E. coli cells (1 liter) expressing the GST fusion protein were lysed in a French pressure cell, and the GST-PTB protein was purified by chromatography on a glutathione-agarose column (Molecular Probes).\nKinase assays were performed by two methods. Initial activity measurements were performed by the phosphocellulose paper binding assay. Reaction mixtures contained 20 mM Tris-HCl (pH 7.4), 10 mM MgCl2, 0.2 mM ATP, [γ-^32P]-ATP (30–50 cpm/pmol), and varying amounts of HMTK1 and peptide substrates. All peptide substrates were purified by high pressure liquid chromatography and characterized by mass spectrometry prior to use. […] Initial rate kinetic measurements on the PTB ligand-containing substrate ([…]pYATLG) and on the Phe-containing PTB control ([…]) were carried out using a continuous spectrophotometric assay. Reactions were performed at 30°C in a final volume of 50 µl. The reactions contained 100 mM Tris pH 7.4, 10 mM MgCl2, 2 mM ATP, 1.5 mM phosphoenolpyruvate, 90 units/ml of pyruvate kinase, 109 units/ml of lactate dehydrogenase, and 1.2 mg/ml of NADH. For determination of Km values, the enzyme concentrations were 0.3–0.5 µM and the peptide concentrations ranged from 0–700 µM. Kinetic constants were determined by nonlinear fitting to the [substrate] vs. velocity curves using GraphPad Prism 4.\nFigure 1 Monosiga brevicollis HMTK1 kinase. (A) Domain arrangement of HMTK1. (B) Amino acid sequence of the PTB-kinase HMTK1 construct used in this study. The HMD motif in the catalytic loop is underlined. (C) Tyrosine kinase activity of HMTK1. […] Reactions proceeded for 6 minutes at 30°C, and enzyme activity was measured using the phosphocellulose paper assay.\nFigure 2 Additional HMTK1 peptide phosphorylation assays. Reactions proceeded for 6 minutes at 30°C, and enzyme activity was measured using the phosphocellulose paper assay. […] (B) Phosphorylation of SH2-binding substrates containing various spacer lengths between the pY residue and the phosphorylatable tyrosine. The peptides are shown schematically, with the phosphorylation site in blue, the SH2-binding ligand (pYEEI) in red, and the number of intervening amino acids in a box. The sequences of the peptides are: […]pYEEIG (spacer = 11), […]pYEEIG (spacer = 7), and […]pYEEIG (spacer = 3); SH2 control substrate, […] (spacer = 11); substrate peptide, […]. Reactions contained 70 µM peptides. Error bars show standard deviation."}, "[2]": {"system": "MbSrc1", "details": "ref [13], [14]; cited from earlier work"}, "[3]": {"system": "MbSrc4", "details": "ref [13], [14]; cited from earlier work"}, "[4]": {"system": "HMTK1", "experiment": "Co-expression of HMTK1 with mammalian receptor tyrosine kinases: binding or phosphorylation", "assay_type": "cell-based, Monosiga brevicollis", "details": "data not shown"}, "[5]": {"biological_target": "Phe-containing PTB control substrate (…)"}, "[6]": {"biological_target": "PTB ligand-containing substrate (…pYATLG)", "sequence (peptide, as listed by the source)": "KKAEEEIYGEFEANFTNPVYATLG"}, "[7]": {"biological_target": "SH2 binding substrate, spacer = 11 (…pYEEIG)", "sequence (peptide, as listed by the source)": "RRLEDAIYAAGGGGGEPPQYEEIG"}, "[8]": {"system": "HMTK1", "experiment": "Binding of purified HMTK1 to immobilized PTB ligand peptides", "parameters": "species or system Monosiga brevicollis", "details": "6.6 µg HMTK1; peptide on Affi-Gel resin; 1 hour at 4°C; anti-His6 Western; Fig. 5A", "experimental": "The PTB ligand-containing peptide, Phe-containing PTB control, and pYEEI peptide (EPQpYEEIG) were linked to Affi-Gel 15 resin (Bio-Rad) following the manufacturer's protocols. Purified HMTK1 or the isolated PTB domain were incubated for 1 hour at 4°C with the immobilized peptides. After binding, the beads were washed 4 times with 1 ml of binding buffer (50 mM Tris-HCl pH 7.5, 5 mM EDTA, 100 mM NaCl, 0.1% Triton X-100, 1 mM DTT, 0.5 mM Na3VO4). Bound proteins were eluted with SDS-PAGE loading buffer, separated by 10% SDS-PAGE, and visualized either by Coomassie blue staining or by Western blotting.\nFigure 5 Substrate targeting by PTB ligand. (A) Purified HMTK1 (6.6 µg) was incubated with PTB ligand-containing substrate ([…]pYATLG), PTB control substrate ([…]), pYEEI peptide, or control resin in final volumes of 60 µl. After washing, bound proteins were eluted with SDS-PAGE sample buffer and analyzed by Western blotting with anti-His6-tag antibody. (B) The kinase activity of HMTK1 (300 nM) toward the PTB ligand-containing substrate or PTB control substrate (shown schematically) was determined using the phosphocellulose paper assay. The reaction contained 20 mM Tris-HCl (pH 7.4), 10 mM MgCl2, 0.2 mM ATP, 30 µM peptide, and [γ-^32P]-ATP. […] Incorporation of ^32P into the peptides was determined by scintillation counting."}, "[9]": {"system": "HMTK1", "experiment": "Steady-state kinetics, continuous spectrophotometric assay", "assay_type": "biochemical, Monosiga brevicollis", "details": "HMTK1 0.3–0.5 µM; peptide 0–700 µM; 100 mM Tris pH 7.4, 10 mM MgCl2, 2 mM ATP; 30°C; nonlinear fitting", "experimental": "Kinase assays were performed by two methods. Initial activity measurements were performed by the phosphocellulose paper binding assay. Reaction mixtures contained 20 mM Tris-HCl (pH 7.4), 10 mM MgCl2, 0.2 mM ATP, [γ-^32P]-ATP (30–50 cpm/pmol), and varying amounts of HMTK1 and peptide substrates. All peptide substrates were purified by high pressure liquid chromatography and characterized by mass spectrometry prior to use. The following substrates were used: c-Src peptide, […]; MbSTAT peptide, […]; RTKB2 peptide 1, […]; RTKB2 peptide 2, […]; SH2 binding substrates (varying linker lengths), […]pYEEIG, […]pYEEIG, and […]pYEEIG; SH2 control substrate, […]. Initial rate kinetic measurements on the PTB ligand-containing substrate ([…]pYATLG) and on the Phe-containing PTB control ([…]) were carried out using a continuous spectrophotometric assay. Reactions were performed at 30°C in a final volume of 50 µl. The reactions contained 100 mM Tris pH 7.4, 10 mM MgCl2, 2 mM ATP, 1.5 mM phosphoenolpyruvate, 90 units/ml of pyruvate kinase, 109 units/ml of lactate dehydrogenase, and 1.2 mg/ml of NADH. For determination of Km values, the enzyme concentrations were 0.3–0.5 µM and the peptide concentrations ranged from 0–700 µM. Kinetic constants were determined by nonlinear fitting to the [substrate] vs. velocity curves using GraphPad Prism 4."}, "[10]": {"system": "FLAG-tagged wild-type HMTK1", "experiment": "Pulldown of FLAG-tagged wild-type HMTK1 from SYF cell lysates with immobilized peptides", "assay_type": "binding, Monosiga brevicollis", "details": "immobilized peptide; anti-FLAG Western; Fig. 3C", "experimental": "For expression in insect cells, HMTK1 DNA (encoding residues 341–761) was cloned into the EcoRI site of pFastbac-Hta (Invitrogen). FLAG-tagged HMTK1 was expressed in mammalian cells by subcloning into the BglII and BamHI sites of p3XFLAG-CMV (Sigma). The ΔPTB version of this construct was prepared by PCR amplification and subsequent recloning into the BamHI and EcoRI sites of p3XFLAG-CMV. Site-directed mutagenesis of FLAG-HMTK1 was carried out using the QuikChange kit (Stratagene). To express the isolated third PTB domain (residues 341–474) in bacterial cells, this PCR fragment was cloned into the EcoRI site of plasmid pGEX-4T-1 (GE Healthcare). All constructs were confirmed by DNA sequencing.\nThe PTB ligand-containing peptide, Phe-containing PTB control, and pYEEI peptide (EPQpYEEIG) were linked to Affi-Gel 15 resin (Bio-Rad) following the manufacturer's protocols. Purified HMTK1 or the isolated PTB domain were incubated for 1 hour at 4°C with the immobilized peptides. […]\nFigure 3 Binding reactions with pYEEI-containing peptide. […] Bound proteins were eluted with SDS-PAGE sample buffer and analyzed by gel electrophoresis with Coomassie blue staining. […] After washing, bound proteins were eluted with SDS-PAGE sample buffer and analyzed by Western blotting with anti-GST antibody. […] After washing, bound proteins were analyzed by anti-FLAG Western blotting. […]"}, "[11]": {"system": "HMTK1", "experiment": "Phosphorylation of SH2-binding substrates with varying spacer lengths by HMTK1 (phosphocellulose paper assay)", "assay_type": "biochemical, Monosiga brevicollis", "details": "70 µM peptides; spacer of 11 residues; 6 minutes at 30°C; Fig. 2B", "experimental": "as §1\nKinase assays were performed by two methods. Initial activity measurements were performed by the phosphocellulose paper binding assay. […] Kinetic constants were determined by nonlinear fitting to the [substrate] vs. velocity curves using GraphPad Prism 4.\nFigure 2 Additional HMTK1 peptide phosphorylation assays. Reactions proceeded for 6 minutes at 30°C, and enzyme activity was measured using the phosphocellulose paper assay. […]"}},
  "data": [
    {"substance": "AEEEIYGEFEAKKKG [c-Src peptide, acidophilic Src peptide, reference compound]", "values": [
      {"measurement": "HMTK1 activity toward peptide (comparison of c-Src and Monosiga-derived peptides)", "setting": "[1]", "value": "roughly equivalent activity"},
      {"measurement": "phosphorylation of peptide by HMTK1", "setting": "[1]; 32P-labeled ATP, 500 µM peptide, 20 mM Tris-HCl pH 7.4, 10 mM MgCl2, 0.2 mM ATP, Fig. 1C", "value": "phosphorylated this peptide efficiently"}
    ]},
    {"substance": "AEEVYEAIADKKK [RTKB2 peptide 2]", "values": [
      {"measurement": "MbSrc1 activity compared with the c-Src peptide", "setting": "[2]", "value": "substantially higher activities"},
      {"measurement": "HMTK1 activity toward peptide (comparison of c-Src and Monosiga-derived peptides)", "setting": "[1]", "value": "highest activity"},
      {"measurement": "MbSrc4 activity compared with the c-Src peptide", "setting": "[3]", "value": "substantially higher activities"}
    ]},
    {"substance": "ErbB2: mammalian receptor tyrosine kinase", "values": [
      {"measurement": "binding or phosphorylation by co-expressed HMTK1", "setting": "[4]", "value": "failed to bind or phosphorylate"}
    ]},
    {"substance": "His-tagged HMTK1 PTB-kinase construct (residues 341-761) (enzyme)", "values": [
      {"measurement": "Km of peptide phosphorylation by HMTK1 (continuous spectrophotometric assay, 30°C)", "setting": "[5]", "value": 450, "unit": "µM"},
      {"measurement": "Km of peptide phosphorylation by HMTK1 (continuous spectrophotometric assay, 30°C)", "setting": "[6]", "value": 33, "unit": "µM"},
      {"measurement": "other", "setting": "[7]", "value": 5, "unit": "fold"}
    ]},
    {"substance": "IGF1R: mammalian receptor tyrosine kinase", "values": [
      {"measurement": "binding or phosphorylation by co-expressed HMTK1", "setting": "[4]", "value": "failed to bind or phosphorylate"}
    ]},
    {"substance": "KKAEEEIYGEFEANFTNPVFATLG [Phe peptide, control peptide in which the pTyr residue was replaced with Phe]", "values": [
      {"measurement": "binding to purified HMTK1", "setting": "[8]", "value": "undetectable"},
      {"measurement": "Km", "setting": "[9]", "value": 450, "unit": "µM"}
    ]},
    {"substance": "KKKASGYVMADIA [MbSTAT peptide, from a putative M. brevicollis STAT]", "values": [
      {"measurement": "HMTK1 activity toward peptide (comparison of c-Src and Monosiga-derived peptides)", "setting": "[1]", "value": "no significant activity"}
    ]},
    {"substance": "LRRApSLG [phospho-Kemptide, immobilized phosphoserine-containing peptide]", "values": [
      {"measurement": "binding to wild-type HMTK1 (SYF lysate)", "setting": "[10]", "value": "failed to bind"}
    ]},
    {"substance": "RRLEDAIYAAGGGGGEPPQpYEEIG [SH2-binding substrate]", "values": [
      {"measurement": "phosphorylation relative to control sequence lacking phosphotyrosine", "setting": "[11]", "value": 5, "unit": "fold"},
      {"measurement": "phosphorylation relative to shortened peptide containing only the substrate motif", "setting": "[11]", "value": 5, "unit": "fold"}
    ]},
    {"substance": "SEEVYGAVVDKKK [RTKB2 peptide 1]", "values": [
      {"measurement": "MbSrc1 activity compared with the c-Src peptide", "setting": "[2]", "value": "substantially higher activities"},
      {"measurement": "HMTK1 activity toward peptide (comparison of c-Src and Monosiga-derived peptides)", "setting": "[1]", "value": "roughly equivalent activity"},
      {"measurement": "MbSrc4 activity compared with the c-Src peptide", "setting": "[3]", "value": "substantially higher activities"}
    ]}
  ]
}
